Series [1] in a line: Human liver microsomal (HLM) stability assay. The class given is in vitro ADME. The conditions noted are these: for microsomal CLint at 3 μM / half-life at 3 μM: both sexes, pH 7.4, human liver microsomes, 3 μM test compound; for microsomal CLint at 3 μM: read-out: CLint (μL/min/mg protein) HLM; for half-life at 3 μM: read-out: T½ (min) HLM; for metabolic stability compared with perhexiline (in words): human and rat liver microsomes, versus perhexiline. The protocol:
The metabolic stability of fluoroperhexiline derivatives was measured by determination of the rate of compound disappearance when incubated in the presence of both human and rat liver microsomes. Liver microsomes are prepared from the endoplasmic reticulum of hepatocytes and are the primary source of the most important enzymes (cytochrome P450) involved in drug metabolism. Study of drug stability in the presence of liver microsomes is accepted as a valuable model permitting rapid prediction of in vivo drug stability.
Human and rat liver microsomes were obtained from a commercial source. Test compounds (3 μM) were incubated with pooled liver microsomes (male and female). Samples were incubated for a 45 minute period and removed at 5 time points and test compounds were analysed by LC-MS/MS.
Microsomes (final protein concentration 0.5 mg/mL), 0.1 M phosphate buffer pH 7.4, and test compound (final concentration 3 μM; diluted from 10 mM stock solution to give a final DMSO concentration of 0.25%) were incubated at 37° C. prior to the addition of NADPH (final concentration 1 mM) to initiate the reaction. The final incubation volume was 25 μL. A control incubation was included for each compound tested, where 0.1 M phosphate buffer pH 7.4 was added instead of NADPH. The control compounds testosterone and 7-hydroxycoumarin were included in each experiment and all incubations were performed singularly for each compound.
Each compound was incubated for 0, 5, 15, 30, and 45 minutes. The control (minus NADPH) was incubated for 45 minutes only. The reactions were stopped by the addition of 50 μL methanol containing internal standard at the appropriate time points. The incubation plates were centrifuged at 2500 rpm for 20 minutes at 4° C. to precipitate the protein.
Following protein precipitation, the sample supernatants were combined in cassettes of up to 4 compounds and analysed using standard LC-MS/MS conditions.
From a plot of the natural logarithm of the peak area ratio (i.e., the ratio of compound peak area:internal standard peak area) against time, the gradient of the line was determined. Subsequently, half-life and intrinsic clearance were calculated using the equations below:
Eliminated Rate Constant (k)=(−Gradient).
Half-Life (t1/2) (min)=0.063/k.
Intrinsic Clearance (CLint) […]=(V×0.693)/t1/2. • wherein V=Incubation Volume (μL/mg microsomal protein).
For orientation: Liver microsomes are a subcellular fraction often used to study metabolism.

For a further series, the target named is T1, cardiac CPT-1 (Rattus norvegicus, UniProt Q63704).
T1 construct: 50 μL of mitochondrial suspension, suitably diluted in Assay Buffer; from tissue; host or cells: rat heart mitochondria (Sprague-Dawley)
T1 sequence (Q63704 1-772): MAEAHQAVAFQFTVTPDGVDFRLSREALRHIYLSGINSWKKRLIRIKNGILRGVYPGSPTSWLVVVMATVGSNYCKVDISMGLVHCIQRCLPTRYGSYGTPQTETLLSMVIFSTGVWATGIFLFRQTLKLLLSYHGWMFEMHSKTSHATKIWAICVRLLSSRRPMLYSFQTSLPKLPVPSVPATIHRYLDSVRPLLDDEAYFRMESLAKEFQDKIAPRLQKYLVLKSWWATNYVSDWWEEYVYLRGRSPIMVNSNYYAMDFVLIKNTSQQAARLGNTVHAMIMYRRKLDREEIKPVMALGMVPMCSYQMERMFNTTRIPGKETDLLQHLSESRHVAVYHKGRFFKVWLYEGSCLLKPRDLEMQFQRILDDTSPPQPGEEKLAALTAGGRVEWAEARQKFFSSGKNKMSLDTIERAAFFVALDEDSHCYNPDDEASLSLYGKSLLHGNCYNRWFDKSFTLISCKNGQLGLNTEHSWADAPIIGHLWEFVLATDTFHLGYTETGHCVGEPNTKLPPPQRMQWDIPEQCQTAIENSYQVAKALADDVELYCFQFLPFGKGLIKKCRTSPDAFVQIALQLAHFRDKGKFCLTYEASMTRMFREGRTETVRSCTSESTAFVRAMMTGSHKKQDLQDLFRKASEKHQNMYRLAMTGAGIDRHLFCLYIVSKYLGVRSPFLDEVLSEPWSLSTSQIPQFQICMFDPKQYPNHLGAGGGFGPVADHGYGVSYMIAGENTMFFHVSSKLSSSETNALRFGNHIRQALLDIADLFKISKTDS
As to the kind of experiment: Carnitine palmitoyl transferase (M-CPT-1) inhibition assay, rat heart mitochondria. The class given is biochemical. The protocol: Male Sprague-Dawley rats (8-10 weeks of age) were purchased from Charles River and maintained for 10 days under standard housing and feeding conditions. All isolation procedures were performed on ice using pre-cooled solutions and instruments. Rats (n=4 per mitochondrial isolation batch) were sacrificed by CO2 asphyxiation, and hearts were removed and rinsed in 3 changes of ice-cold phosphate buffered saline (PBS) to remove blood. Hearts were finely minced with scissors, and homogenised in 5 volumes/wt of a buffer containing 300 mM sucrose, 5 mM MOPS, 1 mM EGTA, 5 mM K2HPO4, 0.1% BSA, pH 7.4, using a teflon Potter homogenizer. The homogenate was centrifuged at 1500×g for 10 min, the supernatant was collected and centrifuged at 9800×g for 5 min, the mitochondrial pellet was washed and centrifuged twice in the same buffer, and then re-suspended in Assay Buffer (150 mM sucrose, 60 mM KCl, 25 mM Tris/HCl, 1 mM EDTA, 0.1 mM 4,4′-dithiopyridine, 1.3 mg/mL lipid-depleted BSA, pH 6.8). Mitochondrial suspensions were kept on ice and used fresh for each set of experiments. A spectrophotometric assay for M-CPT-1 was used, which measured the decrease in palmitoyl CoA concentration as it was utilised by the enzyme to produce palmitoylcarnitine, according to the following reaction: palmitoyl CoA+L-carnitine→palmitoylcarnitine+CoA The disappearance of palmitoyl CoA was monitored as a loss of UV absorbance at 324 nm. Enzyme reactions (1.0 mL final volume, in a spectrophotometer cuvette) contained: • 890 μL of Assay Buffer (see above). • 50 μL of mitochondrial suspension, suitably diluted in Assay Buffer. • 20 μL of 50-fold concentrated inhibitor in suitable vehicle, or vehicle alone. • 20 μL of 2 mM palmitoyl CoA (final concentration 40 μM). • 20 μL of 20 mM L-carnitine (final concentration 400 μM). […] Tubes were incubated at 37° C., and UV absorbance was recorded for 5 min. […] The protein concentration of the mitochondrial suspension was determined using the Bradford assay reagent. […]

What is called IC50 is the concentration at which inhibition is half-maximal. Higher therefore signals a need for much substance. `FC1(F)CCC(C(CC2CCCCN2)C2CCCCC2)CC1` (mixture of isomers) [FPER-001, 2-(2-Cyclohexyl-2-(4,4-difluorocyclohexyl)ethyl)piperidine]: in series [1], the microsomal CLint at 3 μM was found to be 2.6 µL/min/mg, the half-life at 3 μM was 525 min and the “metabolic stability compared with perhexiline (in words)” value is “substantial increase in metabolic stability”. Moreover, the IC50 against cardiac CPT-1 was determined as 35 µM.
Taken in the same sequence, the figures for `FC1CCC(C(CC2CCCCN2)C2CCCCC2)CC1` (mixture of isomers) [FPER-003, 2-(2-Cyclohexyl-2-(4-fluorocyclohexyl)ethyl)piperidine] were 21.3 µL/min/mg, 65 min, “substantial decrease in stability” and 85 µM.
Take `C1CCC(C(CC2CCCCN2)C2CCCCC2)CC1` (centres unmarked) [Perhexiline, 2-(2,2-dicyclohexylethyl)piperidine]: in series [1], the microsomal CLint at 3 μM worked out at 13.8 µL/min/mg and the half-life at 3 μM stood at 100 min. Moreover, the IC50 on cardiac CPT-1 is 18 µM.

For the origin of these results see patent US20160102058A1, “FLUORO-PERHEXILINE COMPOUNDS AND THEIR THERAPEUTIC USE” (THE UNIVERSITY COURT OF THE UNIVERSITY OF ABERDEEN, priority 2013, published 2016).
